Assay results: US10526316B2, “Quinoxaline and pyridopyrazine derivatives as PI3Kβ inhibitors” (Janssen Pharmaceutica NV, priority 2015, dated 2020)
Where two headings read alike, the source gives them in different places.

Legend:
[1] = tested on: Akt phosphorylated at Ser473 in PC-3 cells; experiment: Cellular assay: phosphorylation of Akt at Ser473 in PC-3 cells (MSD ELISA); assay type: cell-based; conditions: PC-3 cells, 60 min compound incubation, MSD ELISA, read-out: IC50 pAkt_S473
How it was run: (§1)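 PC-3 cells were exposed to compound or 0.3% DMSO for 60 min at 37° C, 5% CO2, then lysed in ice-cold buffer. Phospho-Akt was captured on site-specific antibody-coated plates and detected with Sulfo-tag anti-total Akt by electrochemiluminescence. IC50 values came from five-concentration response curves.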

[2] = biological target: T1, kinase enzymes (Homo sapiens, UniProt P42336); experiment: Enzyme binding assay (KINOMEscan, DiscoveRx), further kinases of Table A; conditions: PIK3Cα_h
T1 construct: purchased DiscoveRx Corporation, San Diego (contract service, KINOMEscan)
How it was run: (§2)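 Uses KINOMEscan technology to determine binding affinity toward the kinase enzymes.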

[3] = biological target: T2, kinase enzymes (Homo sapiens, UniProt P48736); experiment: as above; conditions: PIK3Cγ_h
T2 construct: purchased DiscoveRx Corporation, San Diego (contract service, KINOMEscan)
How it was run: as §2

[4] = biological target: T3, kinase enzymes (Homo sapiens, UniProt P42345); experiment: as above; conditions: MTOR_h
T3 construct: purchased DiscoveRx Corporation, San Diego (contract service, KINOMEscan)
How it was run: as §2

[5] = biological target: T4, PI3Kδ (Homo sapiens, UniProt O00329); experiment: Enzyme binding assay (KINOMEscan, DiscoveRx); conditions: PIK3Cδ_h
T4 construct: purchased DiscoveRx Corporation, San Diego (contract service, KINOMEscan)
T4 sequence (O00329 1-1044): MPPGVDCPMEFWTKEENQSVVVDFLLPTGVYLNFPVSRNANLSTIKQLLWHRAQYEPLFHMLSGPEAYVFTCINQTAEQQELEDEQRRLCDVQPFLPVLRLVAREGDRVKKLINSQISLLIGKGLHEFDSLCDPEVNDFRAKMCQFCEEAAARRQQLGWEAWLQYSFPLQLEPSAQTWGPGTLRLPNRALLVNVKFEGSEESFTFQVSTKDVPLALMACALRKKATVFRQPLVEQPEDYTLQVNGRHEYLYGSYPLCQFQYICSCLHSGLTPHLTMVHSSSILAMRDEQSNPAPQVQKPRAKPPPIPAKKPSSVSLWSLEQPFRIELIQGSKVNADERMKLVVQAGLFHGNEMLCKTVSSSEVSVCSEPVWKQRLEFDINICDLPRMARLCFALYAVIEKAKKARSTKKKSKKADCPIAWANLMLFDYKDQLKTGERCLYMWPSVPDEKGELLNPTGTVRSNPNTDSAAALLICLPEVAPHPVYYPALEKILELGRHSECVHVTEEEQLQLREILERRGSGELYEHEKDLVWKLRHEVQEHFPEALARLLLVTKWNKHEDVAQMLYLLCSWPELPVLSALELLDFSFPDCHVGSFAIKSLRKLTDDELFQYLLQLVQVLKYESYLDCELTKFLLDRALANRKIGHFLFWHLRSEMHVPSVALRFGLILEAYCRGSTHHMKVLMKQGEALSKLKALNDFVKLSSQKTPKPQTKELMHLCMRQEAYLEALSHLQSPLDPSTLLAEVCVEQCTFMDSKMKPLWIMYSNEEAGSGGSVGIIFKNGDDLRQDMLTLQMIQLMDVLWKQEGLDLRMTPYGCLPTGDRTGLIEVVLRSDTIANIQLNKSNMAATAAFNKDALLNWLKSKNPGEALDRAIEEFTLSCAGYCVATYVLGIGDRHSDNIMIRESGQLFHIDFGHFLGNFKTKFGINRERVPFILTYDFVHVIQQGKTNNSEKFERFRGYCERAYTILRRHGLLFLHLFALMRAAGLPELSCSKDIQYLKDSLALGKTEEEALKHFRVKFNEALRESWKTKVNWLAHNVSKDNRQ
How it was run: as §2

[6] = tested on: Akt phosphorylated at Thr308 in PC-3 cells; experiment: Cellular assay: phosphorylation of Akt at Thr308 in PC-3 cells (MSD ELISA); assay type: cell-based; conditions: PC-3 cells, 60 min compound incubation, MSD ELISA, read-out: IC50 pAkt_Thr308
How it was run: as §1

[7] = biological target: T5, PI3Kβ (Homo sapiens, UniProt P42338); experiment: Enzyme binding assay (KINOMEscan, DiscoveRx); conditions: PIK3Cβ_h, read-out: Kd PIK3Cβ_h
T5 construct: purchased DiscoveRx Corporation, San Diego (contract service, KINOMEscan)
How it was run: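 Using the KINOMEscan format, the enzyme binding affinity of each compound was determined. Each value is the inhibitor binding constant, Kd (nM).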

T2 sequence (P48736 whole entry): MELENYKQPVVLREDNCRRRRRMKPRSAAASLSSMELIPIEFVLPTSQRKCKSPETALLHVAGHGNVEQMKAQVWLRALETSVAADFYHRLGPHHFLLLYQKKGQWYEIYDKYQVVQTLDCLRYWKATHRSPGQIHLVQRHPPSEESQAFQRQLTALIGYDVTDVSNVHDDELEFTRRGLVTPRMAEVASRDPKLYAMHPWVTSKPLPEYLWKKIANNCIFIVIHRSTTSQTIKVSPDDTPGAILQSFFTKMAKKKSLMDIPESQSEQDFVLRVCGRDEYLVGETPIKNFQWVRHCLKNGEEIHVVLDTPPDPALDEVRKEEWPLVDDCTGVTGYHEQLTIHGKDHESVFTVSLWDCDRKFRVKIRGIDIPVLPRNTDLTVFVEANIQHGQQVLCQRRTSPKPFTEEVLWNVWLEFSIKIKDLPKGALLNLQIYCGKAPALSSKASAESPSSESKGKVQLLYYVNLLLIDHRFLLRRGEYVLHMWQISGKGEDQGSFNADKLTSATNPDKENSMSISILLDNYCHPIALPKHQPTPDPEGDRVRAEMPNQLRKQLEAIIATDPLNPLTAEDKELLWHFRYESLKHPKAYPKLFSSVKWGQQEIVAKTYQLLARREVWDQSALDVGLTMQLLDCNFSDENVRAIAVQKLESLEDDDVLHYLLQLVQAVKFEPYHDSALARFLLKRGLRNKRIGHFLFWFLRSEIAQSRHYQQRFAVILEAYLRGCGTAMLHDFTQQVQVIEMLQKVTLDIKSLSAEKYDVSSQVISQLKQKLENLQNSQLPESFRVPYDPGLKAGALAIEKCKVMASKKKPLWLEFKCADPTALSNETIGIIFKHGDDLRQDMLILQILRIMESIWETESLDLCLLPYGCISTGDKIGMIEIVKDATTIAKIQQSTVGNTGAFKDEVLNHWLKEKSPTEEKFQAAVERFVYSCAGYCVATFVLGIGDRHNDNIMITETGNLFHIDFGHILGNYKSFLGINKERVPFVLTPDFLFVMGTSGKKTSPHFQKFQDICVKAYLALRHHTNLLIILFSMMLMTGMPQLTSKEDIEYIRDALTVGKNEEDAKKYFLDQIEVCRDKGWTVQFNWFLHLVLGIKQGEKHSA
T5 sequence (P42338 whole entry): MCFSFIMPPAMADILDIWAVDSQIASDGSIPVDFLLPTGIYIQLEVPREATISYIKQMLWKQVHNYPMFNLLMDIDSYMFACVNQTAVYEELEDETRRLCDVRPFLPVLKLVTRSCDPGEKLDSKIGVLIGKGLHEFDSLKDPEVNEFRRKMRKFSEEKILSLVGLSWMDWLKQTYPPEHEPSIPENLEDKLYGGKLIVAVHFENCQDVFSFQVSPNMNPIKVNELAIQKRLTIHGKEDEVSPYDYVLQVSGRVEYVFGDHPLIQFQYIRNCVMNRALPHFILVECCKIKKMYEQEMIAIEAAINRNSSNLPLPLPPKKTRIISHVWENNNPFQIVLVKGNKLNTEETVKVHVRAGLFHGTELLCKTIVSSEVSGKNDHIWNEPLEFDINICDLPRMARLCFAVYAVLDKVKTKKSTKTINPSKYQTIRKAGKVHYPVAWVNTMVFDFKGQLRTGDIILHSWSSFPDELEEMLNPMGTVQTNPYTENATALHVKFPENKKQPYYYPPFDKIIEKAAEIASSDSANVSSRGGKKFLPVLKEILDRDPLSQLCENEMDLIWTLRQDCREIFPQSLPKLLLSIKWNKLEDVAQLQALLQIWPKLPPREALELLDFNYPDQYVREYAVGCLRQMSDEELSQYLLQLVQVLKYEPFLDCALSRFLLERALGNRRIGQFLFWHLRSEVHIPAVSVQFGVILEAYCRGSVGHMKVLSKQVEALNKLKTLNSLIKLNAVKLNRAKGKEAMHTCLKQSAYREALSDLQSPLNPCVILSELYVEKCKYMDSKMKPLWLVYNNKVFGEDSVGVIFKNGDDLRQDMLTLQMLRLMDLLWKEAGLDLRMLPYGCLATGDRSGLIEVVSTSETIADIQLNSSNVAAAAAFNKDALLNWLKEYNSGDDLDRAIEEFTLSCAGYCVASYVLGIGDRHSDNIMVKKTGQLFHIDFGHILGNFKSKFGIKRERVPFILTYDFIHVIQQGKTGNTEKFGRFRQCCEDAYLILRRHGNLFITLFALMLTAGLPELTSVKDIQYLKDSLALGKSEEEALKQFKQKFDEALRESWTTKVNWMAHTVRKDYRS
T1 sequence (P42336 whole entry): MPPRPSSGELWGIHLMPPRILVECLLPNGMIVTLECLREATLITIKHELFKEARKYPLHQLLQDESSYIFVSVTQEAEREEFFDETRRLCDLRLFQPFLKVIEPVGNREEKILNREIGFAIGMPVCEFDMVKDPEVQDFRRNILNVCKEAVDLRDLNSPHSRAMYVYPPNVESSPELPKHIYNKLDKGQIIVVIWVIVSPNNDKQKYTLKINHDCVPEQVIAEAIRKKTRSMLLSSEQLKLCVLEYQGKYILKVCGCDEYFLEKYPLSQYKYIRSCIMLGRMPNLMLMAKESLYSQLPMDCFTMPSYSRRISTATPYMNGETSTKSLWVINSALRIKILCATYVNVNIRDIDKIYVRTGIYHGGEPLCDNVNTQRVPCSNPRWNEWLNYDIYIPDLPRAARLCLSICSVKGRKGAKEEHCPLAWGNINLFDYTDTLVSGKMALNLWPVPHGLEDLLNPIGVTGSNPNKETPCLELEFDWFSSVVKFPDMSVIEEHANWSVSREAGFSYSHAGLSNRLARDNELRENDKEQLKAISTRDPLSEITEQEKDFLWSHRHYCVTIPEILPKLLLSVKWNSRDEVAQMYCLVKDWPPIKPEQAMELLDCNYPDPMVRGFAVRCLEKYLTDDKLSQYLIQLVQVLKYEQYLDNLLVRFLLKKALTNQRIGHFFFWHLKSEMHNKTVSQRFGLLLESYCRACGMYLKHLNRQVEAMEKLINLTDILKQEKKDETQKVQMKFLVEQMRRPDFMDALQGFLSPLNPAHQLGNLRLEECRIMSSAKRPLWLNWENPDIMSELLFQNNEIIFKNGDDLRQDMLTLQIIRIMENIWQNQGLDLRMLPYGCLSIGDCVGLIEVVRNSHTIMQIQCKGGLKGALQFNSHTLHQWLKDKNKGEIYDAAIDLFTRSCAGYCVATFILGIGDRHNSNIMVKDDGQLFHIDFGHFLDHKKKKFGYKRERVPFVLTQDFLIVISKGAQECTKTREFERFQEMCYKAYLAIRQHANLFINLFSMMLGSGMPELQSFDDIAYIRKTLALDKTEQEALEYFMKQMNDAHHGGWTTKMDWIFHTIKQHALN

IC50 [1]	Kd [2]	Kd [3]	Kd [4]	Kd [5]	IC50 [6]	Kd [7]	IC50 ([1]; Homo sapiens, PC-3, 1 h)	IC50 ([6]; Homo sapiens, PC-3, 1 h)	Compound
> 513 nM	16.2 µM	> 30.2 µM	> 30.2 µM	16600 nM	> 513 nM	1020 nM	–	–	CCN1CCN(C(=O)c2cc(C(C)Oc3cccc(F)c3)c3nc(N4CCOCC4)cnc3c2)CC1 (single isomer, unassigned) [Compound 92]
–	> 30.2 µM	> 30.2 µM	> 30.2 µM	5250 nM	–	158 nM	> 513 nM	> 513 nM	CC(C)N1CCCN(C(=O)c2cc(N(C)Cc3cc(F)cc(F)c3)c3nc(N4CCOCC4)cnc3c2)CC1 [Compound 373]
7 nM	1.02 µM	1.48 µM	> 30.2 µM	112 nM	3 nM	0.5 nM	–	–	CN[C@H]1CCN(C(=O)c2cc(C(C)Nc3cc(F)c(F)c(F)c3)c3nc(N4CCOCC4)cnc3c2)C1 (single isomer, unassigned) [Compound 297b]
–	3.8 µM	8.91 µM	18.6 µM	1200 nM	–	5 nM	> 513 nM	> 513 nM	CNCCNC(=O)c1cc(C(C)Oc2ccc(Cl)c(F)c2)c2nc(N3CCOCC3)cnc2c1 (single isomer, unassigned) [Compound 380b]
> 513 nM	> 30.2 µM	> 30.2 µM	> 30.2 µM	> 30200 nM	> 513 nM	14800 nM	–	–	CC(Nc1cc(F)c(F)c(F)c1)c1cc(C(=O)NCC(C)(C)O)cc2ncc(N3CCOCC3)nc12 (single isomer, unassigned) [Compound 292b]
9 nM	1.7 µM	2.57 µM	> 30.2 µM	112 nM	11 nM	0.4 nM	–	–	CNCCOCCN(C)C(=O)c1cc(C(C)Nc2cc(F)cc(F)c2)c2nc(N3CCOCC3)cnc2c1 (single isomer, unassigned) [Compound 175]
–	2.29 µM	9.77 µM	> 30.2 µM	1000 nM	–	2 nM	14 nM	21 nM	CN[C@H]1CCN(C(=O)c2cc(NCc3cc(F)cc(F)c3)c3nc(N4CCOCC4)cnc3c2)C1 [Compound 352]
~513 nM	1.86 µM	12.3 µM	> 30.2 µM	871 nM	> 513 nM	25 nM	–	–	CN(C)C(=O)c1cc(N2CCC2c2ccc(F)cc2)c2nc(N3CCOCC3)cnc2c1 (single isomer, unassigned) [Compound 397b]
> 513 nM	22.9 µM	> 30.2 µM	> 30.2 µM	15500 nM	> 513 nM	490 nM	–	–	CC(Oc1cc(F)cc(F)c1)c1cc(C(=O)N(C)CCO)cc2ncc(N3CCOCC3)nc12 (single isomer, unassigned) [Compound 60]
> 513 nM	1.7 µM	3.16 µM	1.66 µM	3020 nM	> 513 nM	603 nM	–	–	CC(Oc1cccc(F)c1)c1cc(C(=O)O)cc2ncc(N3CCOCC3)nc12 (single isomer, unassigned) [Compound 257c]
132 nM	3.76 µM	3.43 µM	18.6 µM	4420 nM	249 nM	41 nM	–	–	CNCCNC(=O)c1cc(C(C)Nc2cccc(F)c2)c2nc(N3CCOCC3)cnc2c1 (single isomer, unassigned) [Compound 139]
> 513 nM	7.08 µM	8.13 µM	> 30.2 µM	7760 nM	> 513 nM	372 nM	–	–	CC(C)NCCNC(=O)c1cc(C(C)Nc2ccc(F)c(F)c2)c2nc(N3CCOCC3)cnc2c1 (single isomer, unassigned) [Compound 364b]
~102 nM	1.95 µM	12.9 µM	> 30.2 µM	479 nM	47 nM	2 nM	–	–	CC(Nc1cc(F)cc(F)c1)c1cc(CN2CCOCC23COC3)cc2ncc(N3CCOCC3)nc12 (single isomer, unassigned) [Compound 195]
–	7.24 µM	> 30.2 µM	25.1 µM	525 nM	251 nM	20 nM	~363 nM	–	CC(Oc1ccc(F)c(F)c1)c1cc(C(=O)N2CCN3CCC[C@H]3C2)cc2ncc(N3CCOCC3)nc12 (single isomer, unassigned) [Compound 369a]
–	2.29 µM	20 µM	> 30.2 µM	204 nM	–	2 nM	158 nM	123 nM	CC(Oc1cc(F)ccc1NCCN)c1cc(C(=O)N(C)C)cc2ncc(N3CCOCC3)nc12 (stereo not drawn) [Compound 79]
–	3.16 µM	> 30.2 µM	> 30.2 µM	2190 nM	–	5 nM	39 nM	28 nM	CC(C)NCCN(C)C(=O)c1cc(NCc2cc(F)cc(F)c2)c2nc(N3CCOCC3)cnc2c1 [Compound 389]
–	8.13 µM	28.2 µM	> 30.2 µM	2400 nM	–	63 nM	> 513 nM	> 513 nM	Cc1c(F)cccc1CN(C)c1cc(C(=O)N(C)C)cc2ncc(N3CCOCC3)nc12 [Compound 354]
–	0.324 µM	0.724 µM	15.1 µM	331 nM	–	1 nM	~68 nM	42 nM	Fc1cc(F)cc(N2CCCC2c2cncc3ncc(N4CCOCC4)nc23)c1 (stereo not drawn) [Compound 23]
–	5.25 µM	10.2 µM	> 30.2 µM	204 nM	–	1 nM	52 nM	35 nM	CN[C@H]1CCN(C(=O)c2cc(C(C)Nc3ccc(F)c(F)c3)c3nc(N4CCOCC4)cnc3c2)C1 (single isomer, unassigned) [Compound 365a]
479 nM	4.68 µM	25.7 µM	> 30.2 µM	2750 nM	302 nM	14 nM	–	–	CC(Nc1ccc(F)c(F)c1)c1cc(C(=O)N(C)CCN(C)C)cc2ncc(N3CCOCC3)nc12 (single isomer, unassigned) [Compound 349b]
–	5.01 µM	26.3 µM	> 30.2 µM	851 nM	166 nM	3 nM	257 nM	–	CC(Oc1ccc(Cl)c(F)c1)c1cc(C(=O)N(C)CCN(C)C)cc2ncc(N3CCOCC3)nc12 (single isomer, unassigned) [Compound 313a]
2 nM	0.034 µM	0.313 µM	28.2 µM	15 nM	3 nM	0.3 nM	–	–	CN(C)C(=O)c1cc([C@H]2CCCN2c2cc(F)cc(F)c2)c2nc(N3CCOCC3)cnc2c1 [Compound 1]
> 513 nM	8.71 µM	13.2 µM	21.9 µM	1050 nM	> 513 nM	72 nM	–	–	O=C(NCCO)c1cc(N2CCCC2c2cc(F)cc(F)c2)c2nc(N3CCOCC3)cnc2c1 (single isomer, unassigned) [Compound 245]
–	11.3 µM	28.8 µM	6.46 µM	796 nM	–	43 nM	> 513 nM	> 513 nM	Cc1c(F)cccc1CN(C)c1cc(C(=O)N(C)[C@@H]2CCNC2)cc2ncc(N3CCOCC3)nc12 [Compound 359]
